Laboratory results as given in US20110045101A1, “FUNGICIDAL SUBSTITUTED AZOLES” (E.I. Du Pont De Nemours and Company, priority 2009, published 2011).
Marks after values point to notes of the source that are not given here.

What was measured:
Assay type in all cases: in vivo
Conditions in all cases: 100 = 100% disease control
[1] = system: Erysiphe graminis f. sp. tritici; assay: Test J: wheat powdery mildew on wheat seedlings, sprayed the day before inoculation, visual disease rating
Method in brief: (§1)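 Ratings reflect a 200 ppm spray (≈500 g/ha) unless marked as 40 ppm. Plants were sprayed to run-off. The spray suspension was acetone/purified water 50/50 containing 250 ppm Trem 014, after first dissolving compound in acetone at 3% of final volume.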

[2] = system: Puccinia recondita f. sp. tritici; assay: Test H: wheat leaf rust, test suspension sprayed after inoculation of wheat seedlings, visual disease rating
Method in brief: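 Wheat seedlings inoculated with P. recondita spores, held 24 h saturated at 20 °C, then 2 days in growth chamber at 20 °C; compound suspension (acetone/water with Trem 014) sprayed to run-off afterwards. Rated visually; 200 ppm (≈500 g/ha) unless marked *, which denotes 40 ppm.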

[3] = system: Septoria tritici; assay: Test G: wheat leaf blotch on wheat seedlings, sprayed the day before inoculation, visual disease rating
Method in brief: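 Visual disease ratings taken 19 days after transfer to a 20° C growth chamber, following 48 h in saturated atmosphere at 24° C. Seedlings had been sprayed to run-off one day before spore inoculation. Dose 200 ppm, or 40 ppm where starred.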

[4] = system: Puccinia recondita f. sp. tritici; assay: Test I: wheat leaf rust on wheat seedlings, sprayed the day before inoculation, visual disease rating
Method in brief: as §1

[5] = system: Botrytis cinerea; assay: Test C: tomato Botrytis on tomato seedlings, sprayed the day before inoculation, visual disease rating
Method in brief: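 Disease scored by eye on tomato seedlings inoculated with Botrytis cinerea a day after treatment. Treatment was a run-off spray at 200 ppm (equivalent to 500 g/ha), or 40 ppm where marked, in acetone/water carrying 250 ppm Trem 014.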

[6] = system: Alternaria solani; assay: Test D: tomato early blight, sprayed the day before inoculation, visual disease rating
Method in brief: as §1

[7] = system: Septoria nodorum; assay: Test F: wheat glume blotch on wheat seedlings, sprayed the day before inoculation, visual disease rating
Method in brief: as §1

[8] = 200 ppm, 0 = no control relative to controls
[9] = 40 ppm (marked *), 0 = no control

| SMILES | Test J disease control rating [1, 8] | Test H disease control rating [2, 8] | Test G disease control rating [3, 8] | Test I disease control rating [4, 8] | Test C disease control rating [5, 8] | Test D disease control rating [6, 8] | Test F disease control rating [7, 8] | further results |
| --- | --- | --- | --- | --- | --- | --- | --- | --- |
| COc1ccc(F)c(-c2c(Br)ncn2-c2ccc(C)cc2)c1F [compound 473] | 100% | 0% | 97% | 100% | 99% | 100% | 0% |  |
| Cc1cccc(-c2c(C)nc(Cl)n2-c2ccc(Cl)c(F)c2)n1 [compound 378] | 75% | 0% | 93% | 74% | 100% | 0% | 0% |  |
| Fc1cc(-c2c(CCl)nc(Cl)n2-c2ccc(Cl)c(F)c2)ccn1 [compound 322] |  |  |  |  |  |  |  | Test J disease control rating [1, 9]: 0* %; Test H disease control rating [2, 9]: 63* %; Test G disease control rating [3, 9]: 0* %; Test I disease control rating [4, 9]: 28* %; Test C disease control rating [5, 9]: 62* %; Test D disease control rating [6, 9]: 0* %; Test F disease control rating [7, 9]: 0* % |
| COc1cc(F)c(-c2c(C)nc(Br)n2-c2ccc(C(F)(F)F)nc2)c(F)c1 [compound 731] | 100% | 0% | 100% | 99% | 99% | 100% | 99% |  |
| COc1ccc(F)c(-c2c(Cl)nc(Cl)n2-c2ccc(C)c(F)c2)c1F [compound 561] | 100% | 9% | 100% | 100% | 99% | 100% | 97% |  |
| COc1cc(F)c(-c2c(Br)nc(Br)n2-c2ccc(C)nc2)c(F)c1 [compound 554] | 100% | 100% | 99% | 100% | 100% | 100% | 100% |  |
| Cc1ccc(-n2c(C)nc(C)c2-c2c(F)ccc(F)c2F)cc1 [compound 490] |  |  |  |  |  |  |  | Test J disease control rating ([1]; 40 ppm (marked *)): 100* %; Test H disease control rating ([2]; 40 ppm (marked *)): 0* %; Test G disease control rating ([3]; 40 ppm (marked *)): 87* %; Test I disease control rating ([4]; 40 ppm (marked *)): 76* %; Test C disease control rating ([5]; 40 ppm (marked *)): 97* %; Test D disease control rating ([6]; 40 ppm (marked *)): 99* %; Test F disease control rating ([7]; 40 ppm (marked *)): 0* % |
| COc1cc(Cl)cc(Cl)c1-c1c(Cl)nc(Cl)n1-c1ccc(Cl)c(F)c1 [compound 438] | 0% | 0% |  | 0% | 0% | 0% | 0% | Test G disease control rating [3, 9]: 86* % |
| COc1cc(F)c(-c2c(Cl)nc(Cl)n2-c2ccc(C)cc2F)c(F)c1 [compound 653] |  |  |  |  |  |  |  | Test J disease control rating ([1]; 40 ppm (marked *)): 99* %; Test H disease control rating ([2]; 40 ppm (marked *)): 99* %; Test G disease control rating ([3]; 40 ppm (marked *)): 100* %; Test I disease control rating ([4]; 40 ppm (marked *)): 100* %; Test C disease control rating ([5]; 40 ppm (marked *)): 99* %; Test D disease control rating ([6]; 40 ppm (marked *)): 99* %; Test F disease control rating ([7]; 40 ppm (marked *)): 78* % |
| Cc1ccc(-n2c(C)nc(C)c2-c2c(F)ccc(F)c2Cl)cc1 [compound 493] |  |  |  |  |  |  |  | Test J disease control rating ([1]; 40 ppm (marked *)): 99* %; Test H disease control rating ([2]; 40 ppm (marked *)): 0* %; Test G disease control rating ([3]; 40 ppm (marked *)): 93* %; Test I disease control rating ([4]; 40 ppm (marked *)): 97* %; Test C disease control rating ([5]; 40 ppm (marked *)): 96* %; Test D disease control rating ([6]; 40 ppm (marked *)): 99* %; Test F disease control rating ([7]; 40 ppm (marked *)): 0* % |
| COc1cc(F)c(-c2c(Cl)nc(Cl)n2-c2ccccc2)c(F)c1Cl [compound 428] | 100% | 0% | 99% | 100% | 100% | 100% | 0% |  |
| Fc1cc(-n2c(Cl)nc(CCl)c2-c2cncc(Br)c2)ccc1Cl [compound 355] | 0% | 0% | 3% | 28% | 0% | 0% | 0% |  |
| COc1cc(F)c(-c2c(C)nc(Cl)n2-c2ccc(C(F)(F)F)nc2)c(F)c1 [compound 732] | 100% | 0% | 99% | 99% | 100% | 100% | 100% |  |
| Cc1ncn(-c2ccc(Cl)cn2)c1-c1c(F)cccc1F [compound 320] | 99% | 0% | 100% | 28% | 99% | 67% | 0% |  |
| COc1cc(OC)cc(-c2c(Br)nc(C)n2-c2c(F)cc([N+](=O)[O-])cc2F)c1 [compound 651] | 79% | 0% | 97% | 95% | 97% | 0% | 60% |  |
| Cc1nc(Cl)c(-c2c(F)cccc2F)n1-c1ccc(SCCl)cc1 [compound 529] | 0% | 9% | 82% | 48% | 0% | 0% | 0% |  |
| CCOc1ccc(F)c(-c2c(Cl)ncn2-c2ccc(Cl)cc2)c1F [compound 660] | 100% | 9% | 100% | 92% | 100% | 98% | 82% |  |
| COc1cc(F)c(-n2c(Cl)nc(CCl)c2-c2ccc(Cl)cc2)c(F)c1 [compound 397] |  |  |  |  |  |  |  | Test J disease control rating [1, 9]: 13* %; Test H disease control rating [2, 9]: 0* %; Test G disease control rating [3, 9]: 94* %; Test I disease control rating [4, 9]: 88* %; Test C disease control rating [5, 9]: 100* %; Test D disease control rating [6, 9]: 98* %; Test F disease control rating [7, 9]: 0* % |
| Cc1ccc(-n2c(Cl)nc(C)c2-c2c(F)ccc(F)c2Cl)cc1 [compound 495] |  |  |  |  |  |  |  | Test J disease control rating ([1]; 40 ppm (marked *)): 100* %; Test H disease control rating ([2]; 40 ppm (marked *)): 0* %; Test G disease control rating ([3]; 40 ppm (marked *)): 31* %; Test I disease control rating ([4]; 40 ppm (marked *)): 99* %; Test C disease control rating ([5]; 40 ppm (marked *)): 97* %; Test D disease control rating ([6]; 40 ppm (marked *)): 99* %; Test F disease control rating ([7]; 40 ppm (marked *)): 0* % |
| COc1cc(F)c(-c2c(Cl)nc(Cl)n2-c2cc(C)cnc2Cl)c(F)c1 [compound 677] | 100% | 100% | 99% | 100% | 100% | 100% | 100% |  |
| CCOc1ccc(F)c(-c2c(Cl)nc(Br)n2-c2ccc(Cl)cc2)c1F [compound 662] | 100% | 0% | 99% | 98% | 100% | 99% | 100% |  |
| Fc1cc(F)c(-c2c(Cl)nc(Br)n2-c2cccc(OC(F)(F)F)c2)c(F)c1 [compound 605] | 94% | 0% | 73% | 0% | 19% | 0% | 0% |  |
| COc1ccc(F)c(-c2c(Cl)nc(Br)n2-c2ccc(Cl)nc2)c1F [compound 730] | 100% | 9% | 100% | 99% | 100% | 100% | 99% |  |
